In ChEMBL document CHEMBL4819147, “Design, synthesis and biological evaluation of novel molecules as potent PARP-1 inhibitors” (Bioorg Med Chem Lett, 2021):

Legend:
[1] = molecular target: T1, Poly [ADP-ribose] polymerase 1 (Homo sapiens, UniProt P09874); assay: Inhibition of PARP1 (unknown origin)
HCC1937 = assay: Antiproliferative activity against BRCA1-deficient human HCC1937 cells assessed as cell growth inhibition; assay type: functional, cell-based
HCT-116 [2] = assay: Antiproliferative activity against BRCA2-deficient human HCT116 cells assessed as cell growth inhibition; assay type: functional, cell-based
[3] = Octanol-water partition coefficient, logP of the compound; assay type: physicochemical
[4] = molecular target: T1, Poly [ADP-ribose] polymerase 1; assay: Inhibition of PARP1 (unknown origin) at 10 nM relative to control
[5] = Half life in human liver microsomes incubated for 50 mins; assay type: ADME, Microsome
[6] = Intrinsic clearance in human liver microsomes incubated for 50 mins; assay type: ADME, Microsome
HCT-116 [7] = assay: Potency index, ratio of olaparibIC50 to test compound IC50 for antiproliferative activity against BRCA2-deficient human HCT116 cells assessed as cell growth inhibition; assay type: functional

T1 sequence (P09874 whole entry): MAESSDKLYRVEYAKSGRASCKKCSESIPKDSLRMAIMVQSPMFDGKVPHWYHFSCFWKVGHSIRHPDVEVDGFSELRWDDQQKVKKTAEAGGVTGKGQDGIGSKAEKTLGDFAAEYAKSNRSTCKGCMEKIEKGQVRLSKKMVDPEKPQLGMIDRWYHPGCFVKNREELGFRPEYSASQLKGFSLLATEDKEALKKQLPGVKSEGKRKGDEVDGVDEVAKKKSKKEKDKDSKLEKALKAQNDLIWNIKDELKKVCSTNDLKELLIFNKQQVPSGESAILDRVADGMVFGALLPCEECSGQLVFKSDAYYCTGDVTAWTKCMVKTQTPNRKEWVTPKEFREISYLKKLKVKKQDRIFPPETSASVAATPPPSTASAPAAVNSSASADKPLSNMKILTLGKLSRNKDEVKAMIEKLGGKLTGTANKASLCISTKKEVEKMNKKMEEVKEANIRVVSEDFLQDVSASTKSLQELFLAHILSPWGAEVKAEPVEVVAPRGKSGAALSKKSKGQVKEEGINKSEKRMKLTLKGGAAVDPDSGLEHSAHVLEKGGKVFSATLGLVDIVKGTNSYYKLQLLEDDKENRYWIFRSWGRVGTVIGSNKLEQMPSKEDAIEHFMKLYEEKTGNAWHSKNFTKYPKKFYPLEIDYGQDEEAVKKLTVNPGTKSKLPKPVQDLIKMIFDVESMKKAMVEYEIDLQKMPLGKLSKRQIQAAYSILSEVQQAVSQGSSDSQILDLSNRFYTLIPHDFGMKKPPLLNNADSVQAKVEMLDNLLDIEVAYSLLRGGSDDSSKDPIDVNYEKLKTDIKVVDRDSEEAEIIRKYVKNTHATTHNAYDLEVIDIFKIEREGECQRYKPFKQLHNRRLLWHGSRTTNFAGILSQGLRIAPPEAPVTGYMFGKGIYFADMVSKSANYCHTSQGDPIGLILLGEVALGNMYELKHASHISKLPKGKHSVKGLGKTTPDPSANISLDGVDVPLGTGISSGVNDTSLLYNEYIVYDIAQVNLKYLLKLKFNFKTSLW

| Compound | IC50 [1] | IC50 (HCC1937) | IC50 (HCT-116 [2]) | inhibition [4] | also measured |
| --- | --- | --- | --- | --- | --- |
| O=C(c1cc(Cc2n[nH]c(=O)c3ccccc23)ccc1F)N1CCn2c(nc3ccccc32)C1 | 0.00049 µM |  |  |  |  |
| O=C(c1cc(Cc2n[nH]c(=O)c3ccccc23)ccc1F)N1CCN(c2nc3ccccc3[nH]2)CC1 | 0.00019 µM | 0.61 µM | 0.49 µM | 100% | logP [3]: 4.15 |
| O=C(c1cc(Cc2n[nH]c(=O)c3ccccc23)ccc1F)N1CCn2c(nc3ccc(Cl)cc32)C1 | 0.0004 µM | 0.0117 µM | 0.0119 µM |  |  |
| COc1ncc(C(N)=O)c2nc(C3CCN(C(=O)c4cc(Cc5n[nH]c(=O)c6ccccc56)ccc4F)CC3)[nH]c12 | 0.0024 µM |  |  | 98% |  |
| NC(=O)c1cncc2[nH]c(C3CCN(C(=O)c4cc(Cc5n[nH]c(=O)c6ccccc56)ccc4F)CC3)nc12 | 0.00023 µM | 130 µM | 161 µM |  |  |
| O=c1[nH]nc(Cc2ccc(F)c(CN3CCN(c4nc5ccccc5[nH]4)CC3)c2)c2ccccc12 |  |  |  | 42% |  |
| COc1nnc(Cc2ccc(F)c(C(=O)N3CCC(c4nc5c(C(N)=O)cncc5[nH]4)CC3)c2)c2ccccc12 |  |  |  | 40% |  |
| O=c1[nH]nc(Cc2ccc(F)c(CN3CCC(c4nc5ccccc5[nH]4)CC3)c2)c2ccccc12 |  |  |  | 47% |  |
| O=C(c1cc(Cc2n[nH]c(=O)c3ccccc23)ccc1F)N1CCC(c2nc3ccccc3[nH]2)CC1 | 0.00063 µM |  |  | 100% |  |
| O=C(c1cc(Cc2n[nH]c(=O)c3ccccc23)ccc1F)N1CCN(C(=O)C2CC2)CC1 [OLAPARIB] |  | 13 µM | 5.86 µM |  | logP [3]: 2.79 |
| Cc1ccc2nc3n(c2c1)CCN(C(=O)c1cc(Cc2n[nH]c(=O)c4ccccc24)ccc1F)C3 | 0.00047 µM | 0.0116 µM | 0.01 µM |  |  |
| O=C(c1cc(Cc2n[nH]c(=O)c3ccccc23)ccc1F)N1CCn2c(nc3ccc(F)cc32)C1 | 0.00051 µM | 0.0126 µM | 0.00662 µM |  | half-life [5]: 2.89 h; logP [3]: 4.83; CLH [6]: 40 µL/min/mg; Ratio IC50 (HCT-116 [7]): 885 |
| CCOc1ncc(C(N)=O)c2nc(C3CCN(C(=O)c4cc(Cc5n[nH]c(=O)c6ccccc56)ccc4F)CC3)[nH]c12 | 0.0017 µM |  |  | 100% |  |
